Reference: US20060063828A1 (priority 2004, published 2006)

Tests used:
VCAM-1 = assay: In Vitro VCAM-1 Assay (ELISA of VCAM-1 on TNF-α stimulated endothelial cells); assay type: cell-based; conditions: Endothelial cell; primary human aortic (HAEC) or pulmonary (HPAEC) endothelial cells, TNF-α (1 ng/ml), approximately 16 hours
Method: Cell Culture and compound dosing: Cultured primary human aortic (HAEC) or pulmonary (HPAEC) endothelial cells were obtained from Clonetics, Inc., and were used below passage 9. Cells were seeded in 96 well plates such that they would reach 90-95% confluency by the following day. On the following day the cells were stimulated with TNF-α (1 ng/ml) in the presence or absence of compounds dissolved in DMSO such that the final concentration of DMSO is 0.25% or less. To establish a dose curve for each compound, four concentrations in 2- to 5-fold increments were used. Cells were exposed to TNF-α and compounds for approximately 16 hours. The next day the cells were examined under microscope to score for visual signs of toxicity or cell stress.
Following 16 hr exposure to TNF-α and compound the media was discarded and the cells were washed once with Hanks Balanced Salt Solution (HBSS)/Phosphate buffered saline (PBS) (1:1). Primary antibodies against VCAM-1 (0.25 μg/ml in HBSS/PBS+5% FBS) were added and incubated for 30-60 minutes at 37° C. Cells were washed with HBSS/PBS three times, and secondary antibody Horse Radish Peroxidase (HRP)-conjugated goat anti-mouse IgG (1:500 in HBSS/PBS+5% FBS) were added and incubated for 30 minutes at 37° C. Cells were washed with HBSS/PBS four time and TMB substrate were added and incubated at room temperature in the dark until there was adequate development of blue color. The length of time of incubation was typically 5-15 minutes. 2N sulfuric acid was added to stop the color development and the data was collected by reading the absorbance on a BioRad ELISA plate reader at OD 450 nm. The results are expressed as IC50 values (the concentration (micromolar) of compound required to inhibit 50% of the maximal response of the control sample stimulated by TNF-α only).

Row | Compound | IC50 (VCAM-1) [µM] | melting point
1 | C=C(C(=O)c1ccc(C(=O)O)cc1)c1ccc(OC)c(-c2cccs2)c1 [Example 1, 4-[2-(4-Methoxy-3-thien-2-yl-phenyl)-acryloyl]-benzoic acid] | < 3 | 163 to 164 °C
2 | C=C(C(=O)c1ccc(C(=O)O)cc1)c1cc(-c2cccn2C(=O)OC(C)(C)C)ccc1OC [Example 3, 2-{3-[1-(4-Carboxy-benzoyl)-vinyl]-4-methoxy-phenyl}-pyrrole-1-carboxylic acid tert-butyl ester] | < 3 | 90 °C (dec.)
3 | C=C(C(=O)c1cc(-c2cc3ccccc3s2)c(OC)cc1OC)c1ccc(C(=O)OC)cc1 [Example 12, 4-[1-(5-Benzo[b]thien-2-yl-2,4-dimethoxy-benzoyl)-vinyl]-benzoic acid methyl ester] | < 3 | 184 to 186 °C
4 | C=C(C(=O)c1ccc(F)cc1)c1cc(-c2cccs2)ccc1OC [Example 13, 1-(4-Fluoro-phenyl)-2-(2-methoxy-5-thien-2-yl-phenyl)-propenone] | < 3 | 116 to 121 °C
5 | C=C(C(=O)c1ccc(N2CCCC2)cc1)c1cc(-c2cccs2)ccc1OC [Example 14, 2-(2-Methoxy-5-thien-2-yl-phenyl)-1-(4-pyrrolidin-1-yl-phenyl)-propenone] | < 3 | 187 to 190 °C
6 | C=C(C(=O)c1ccc(OC)c(-c2cccs2)c1)c1ccc(C(=O)O)cc1 [Example 15, 4-[1-(4-Methoxy-3-thien-2-yl-benzoyl)-vinyl]-benzoic acid] | < 3 | 204 to 205 °C
7 | C=C(C(=O)c1ccc([N+](=O)[O-])cc1)c1cc(-c2cccs2)ccc1OC [Example 18, 2-(2-Methoxy-5-thien-2-yl-phenyl)-1-(4-nitro-phenyl)-propenone] | < 3 | 160 to 162 °C
8 | C=C(C(=O)c1ccc(Nc2ncccc2C(=O)OCC)cc1)c1cc(-c2cccs2)ccc1OC [Example 23, 2-{4-[2-(2-Methoxy-5-thien-2-yl-phenyl)-acryloyl]-phenylamino}-nicotinic acid ethyl ester] | < 3 | 149 to 151 °C
9 | C=C(C(=O)c1ccc(Nc2ncccc2C(=O)O)cc1)c1cc(-c2cccs2)ccc1OC [Example 24, 2-{4-[2-(2-Methoxy-5-thien-2-yl-phenyl)-acryloyl]-phenylamino}-nicotinic acid] | < 1 | 234 °C (dec.)
10 | C=C(C(=O)c1ccc(Nc2cnccn2)cc1)c1cc(-c2cccs2)ccc1OC [Example 25, 2-(2-Methoxy-5-thien-2-yl-phenyl)-1-[4-(pyrazin-2-ylamino)-phenyl]-propenone] | < 1 | 178 to 182 °C
11 | C=C(C(=O)c1ccc(NS(=O)(=O)c2c(C)noc2C)cc1)c1cc(-c2cccs2)ccc1OC [Example 26, 3,5-Dimethyl-isoxazole-4-sulfonic acid {4-[2-(2-methoxy-5-thien-2-yl-phenyl)-acryloyl]-phenyl}-amide] | < 3 | 176 to 179 °C
12 | C=C(C(=O)c1ccc(NC(=O)c2ccno2)cc1)c1cc(-c2cccs2)ccc1OC [Example 27, Isoxazole-5-carboxylic acid {4-[2-(2-methoxy-5-thien-2-yl-phenyl)-acryloyl]-phenyl}-amide] | < 1 | 132.5 to 133.5 °C
13 | C=C(C(=O)c1ccc(NC(=O)c2cccn2C)cc1)c1cc(-c2cccs2)ccc1OC [Example 28, 1-Methyl-1H-pyrrole-2-carboxylic acid {4-[2-(2-methoxy-5-thien-2-yl-phenyl)-acryloyl]-phenyl}-amide] | < 1 | 165 to 168 °C
14 | C=C(C(=O)c1c(C)cccc1C)c1cc(-c2cccs2)ccc1OC [Example 29, 1-(2,6-Dimethyl-phenyl)-2-(2-methoxy-5-thien-2-yl-phenyl)-propenone] | < 1 | –
15 | C=C(C(=O)c1c(OC)ccc(-c2cccs2)c1OC)c1ccccc1OC [Example 31, 1-(2,6-Dimethoxy-3-thien-2-yl-phenyl)-2-(2-methoxy-phenyl)-propenone] | < 1 | –
16 | C=C(C(=O)c1c(C)cccc1Cl)c1ccc(C(=O)O)cc1-c1cccs1 [Example 32, 4-[1-(2-Chloro-6-methyl-benzoyl)-vinyl]-3-thien-2-yl-benzoic acid] | < 1 | 88 °C (dec.)
17 | C=C(C(=O)c1c(C)cccc1C)c1ccccc1-c1cccs1 [Example 38, 1-(2,6-Dimethyl-phenyl)-2-(2-thien-2-yl-phenyl)-propenone] | < 10 | –
18 | C=C(C(=O)c1c(C)cccc1C)c1ccccc1-c1cccnc1OC [Example 39, 1-(2,6-Dimethyl-phenyl)-2-[2-(2-methoxy-pyridin-3-yl)-phenyl]-propenone] | < 6 | –
19 | C=C(C(=O)c1cc(-c2cccs2)ccc1OC)c1ccc([N+](=O)[O-])cc1 [Example 52, 1-(2-Methoxy-5-thien-2-yl-phenyl)-2-(4-nitro-phenyl)-propenone] | < 3 | –
20 | C=C(C(=O)c1cc(-c2cccs2)ccc1OC)c1ccc(C(=O)O)cc1 [Example 54, 4-[1-(2-Methoxy-5-thien-2-yl-benzoyl)-vinyl]-benzoic acid] | < 1 | –
21 | C=C(C(=O)c1ccc(C(=O)O)cc1)c1cc(-c2cccs2)ccc1OC(C)C [Example 59, 4-[2-(2-Isopropoxy-5-thien-2-yl-phenyl)-acryloyl]-benzoic acid] | < 1 | –

Next, values leading:

Row | IC50 (VCAM-1) [µM] | melting point | Compound
22 | < 1 | 232 °C (dec.) | C=C(C(=O)c1ccc(C(=O)O)cc1)c1cc(-c2cnc3ccccc3c2)ccc1OC [Example 2, 4-[2-(2-Methoxy-5-quinolin-3-yl-phenyl)-acryloyl]-benzoic acid]
23 | < 1 | 215 °C (dec.) | C=C(C(=O)c1ccc(C(=O)O)cc1)c1cc(-c2cccnc2)ccc1OC [Example 4, 4-[2-(2-Methoxy-5-pyridin-3-yl-phenyl)-acryloyl]-benzoic acid]
24 | < 1 | 240 to 242 °C (dec.) | C=C(C(=O)c1ccc(C(=O)O)cc1)c1cc(-c2cc3ccccc3s2)ccc1OC [Example 5, 4-[2-(5-Benzo[b]thien-2-yl-2-methoxy-phenyl)-acryloyl]-benzoic acid]
25 | < 1 | > 250 °C | C=C(C(=O)c1ccc(C(=O)O)cc1)c1c(OC)cc(-c2cccs2)cc1OC [Example 6]
26 | < 1 | – | C=C(C(=O)c1c(Cl)cccc1Cl)c1cc(-c2cccs2)ccc1OC [Example 7, 1-(2,6-Dichloro-phenyl)-2-(2-methoxy-5-thien-2-yl-phenyl)-propenone]
27 | < 1 | 126 to 128 °C | C=C(C(=O)c1ccc(C(=O)OC)cc1)c1cc(-c2cccs2)ccc1OC [Example 9, 4-[2-(2-Methoxy-5-thien-2-yl-phenyl)-acryloyl]-benzoic acid methyl ester]
28 | < 1 | 144 to 146 °C | C=C(C(=O)c1ccc(C(=O)NC(CO)(CO)CO)cc1)c1cc(-c2cccs2)ccc1OC [Example 10, N-(2-Hydroxy-1,1-bis-hydroxymethyl-ethyl)-4-[2-(2-methoxy-5-thien-2-yl-phenyl)-acryloyl]-benzamide]
29 | < 1 | 197 to 199 °C | C=C(C(=O)c1ccc(C(=O)N2CCC(O)CC2)cc1)c1cc(-c2cccs2)ccc1OC [Example 11, 1-[4-(4-Hydroxy-piperidine-1-carbonyl)-phenyl]-2-(2-methoxy-5-thien-2-yl-phenyl)-propenone]
30 | < 1 | 159 to 160 °C | C=C(C(=O)c1cc(OC)c(OC)c(-c2cccs2)c1)c1ccc(C(=O)O)cc1 [Example 16, 4-[1-(3,4-Dimethoxy-5-thien-2-yl-benzoyl)-vinyl]-benzoic acid]
31 | < 1 | – | C=C(C(=O)c1ccc(O)cc1)c1cc(-c2cccs2)ccc1OC [Example 17, 1-(4-Hydroxy-phenyl)-2-(2-methoxy-5-thien-2-yl-phenyl)-propenone]
32 | < 1 | 197 to 198 °C | C=C(C(=O)c1ccc(NS(C)(=O)=O)cc1)c1cc(-c2cccs2)ccc1OC [Example 19, N-{4-[2-(2-Methoxy-5-thien-2-yl-phenyl)-acryloyl]-phenyl}-methane-sulfonamide]
33 | < 1 | – | C=C(C(=O)c1ccc(N(C)S(C)(=O)=O)cc1)c1cc(-c2cccs2)ccc1OC [Example 20, N-{4-[2-(2-Methoxy-5-thien-2-yl-phenyl)-acryloyl]-phenyl}-N-methyl-methanesulfonamide]
34 | < 1 | 155 to 158 °C | C=C(C(=O)c1ccc(NC(=O)C(C)C)cc1)c1cc(-c2cccs2)ccc1OC [Example 21, N-{4-[2-(2-Methoxy-5-thien-2-yl-phenyl)-acryloyl]-phenyl}-isobutyramide]
35 | < 1 | 154 to 155 °C | C=C(C(=O)c1ccc(Nc2ncccn2)cc1)c1cc(-c2cccs2)ccc1OC [Example 22, 2-(2-Methoxy-5-thien-2-yl-phenyl)-1-[4-(pyrimidin-2-ylamino)-phenyl]-propenone]
